# Assay results taken from PMC5341858, “Molecular regulation of apoptotic machinery and lipid metabolism by mTORC1/mTORC2 dual inhibitors in preclinical models of HER2+/PIK3CAmut breast cancer” (Oncotarget, 2016).
# Tests used:
# Assay in all cases: KINOMEscan binding assay
# Details in all cases: 1000 nM, percent control relative to vehicle
# ALK = biological target: T1, ALK (Homo sapiens, UniProt Q9UM73)
# T1 construct: purchased DiscoveRx KINOMEscan
# Text: (§1) IC50 values were generated using Graphpad PRISM 5 software.
# [1] = biological target: T2, TYK2 (JH1domain-catalytic) (Homo sapiens, UniProt P29597)
# T2 construct: TYK2 (JH1domain-catalytic); purchased DiscoveRx KINOMEscan
# Text: as §1
# KIT (V559D, T670I) = biological target: T3, KIT (V559D, T670I) (Homo sapiens, UniProt P10721, T670I/V559D)
# T3 construct: purchased DiscoveRx KINOMEscan
# Text: as §1
# MET = biological target: T4, MET (Homo sapiens, UniProt P08581)
# T4 construct: purchased DiscoveRx KINOMEscan
# T4 sequence (P08581 25-1390): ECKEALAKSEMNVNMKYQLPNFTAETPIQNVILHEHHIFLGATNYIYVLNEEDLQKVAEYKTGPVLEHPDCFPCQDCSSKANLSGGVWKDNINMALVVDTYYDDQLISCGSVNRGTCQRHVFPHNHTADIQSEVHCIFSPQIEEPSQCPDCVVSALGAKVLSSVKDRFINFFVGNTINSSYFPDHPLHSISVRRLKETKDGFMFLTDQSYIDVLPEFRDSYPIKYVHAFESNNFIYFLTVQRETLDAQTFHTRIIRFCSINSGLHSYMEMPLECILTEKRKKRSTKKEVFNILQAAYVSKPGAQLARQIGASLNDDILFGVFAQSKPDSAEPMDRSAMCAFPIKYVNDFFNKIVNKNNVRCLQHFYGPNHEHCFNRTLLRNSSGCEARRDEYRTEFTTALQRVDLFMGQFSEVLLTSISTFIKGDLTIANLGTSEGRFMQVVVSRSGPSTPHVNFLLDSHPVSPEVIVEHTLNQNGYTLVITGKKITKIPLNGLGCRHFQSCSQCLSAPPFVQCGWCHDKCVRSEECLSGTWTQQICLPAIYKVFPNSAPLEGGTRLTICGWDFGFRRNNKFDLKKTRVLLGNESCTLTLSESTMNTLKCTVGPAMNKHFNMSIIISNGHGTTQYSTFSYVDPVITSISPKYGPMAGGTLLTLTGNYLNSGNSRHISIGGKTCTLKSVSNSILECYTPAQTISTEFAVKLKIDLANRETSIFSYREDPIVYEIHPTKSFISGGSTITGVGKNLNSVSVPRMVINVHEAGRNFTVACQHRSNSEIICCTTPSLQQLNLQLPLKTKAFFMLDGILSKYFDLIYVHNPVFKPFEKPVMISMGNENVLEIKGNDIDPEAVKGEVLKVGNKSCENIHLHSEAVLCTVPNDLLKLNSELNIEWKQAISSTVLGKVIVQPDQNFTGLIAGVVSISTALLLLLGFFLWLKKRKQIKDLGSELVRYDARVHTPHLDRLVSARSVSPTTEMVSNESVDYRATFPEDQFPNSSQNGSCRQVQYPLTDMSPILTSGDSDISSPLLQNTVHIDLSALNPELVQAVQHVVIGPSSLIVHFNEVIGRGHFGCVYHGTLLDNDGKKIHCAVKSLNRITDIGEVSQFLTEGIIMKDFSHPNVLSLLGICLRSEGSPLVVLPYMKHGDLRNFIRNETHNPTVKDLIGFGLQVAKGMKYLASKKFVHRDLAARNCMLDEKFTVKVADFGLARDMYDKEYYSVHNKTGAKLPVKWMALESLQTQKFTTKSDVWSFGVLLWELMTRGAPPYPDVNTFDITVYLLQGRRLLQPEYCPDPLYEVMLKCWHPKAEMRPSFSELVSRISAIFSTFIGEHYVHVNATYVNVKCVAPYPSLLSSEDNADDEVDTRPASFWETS
# Text: as §1
# PAK4 = biological target: T5, PAK4 (Homo sapiens, UniProt O96013)
# T5 construct: purchased DiscoveRx KINOMEscan
# Text: as §1
# TRKA = biological target: T6, TRKA (Homo sapiens, UniProt P04629)
# T6 construct: purchased DiscoveRx KINOMEscan
# T6 sequence (P04629 33-796): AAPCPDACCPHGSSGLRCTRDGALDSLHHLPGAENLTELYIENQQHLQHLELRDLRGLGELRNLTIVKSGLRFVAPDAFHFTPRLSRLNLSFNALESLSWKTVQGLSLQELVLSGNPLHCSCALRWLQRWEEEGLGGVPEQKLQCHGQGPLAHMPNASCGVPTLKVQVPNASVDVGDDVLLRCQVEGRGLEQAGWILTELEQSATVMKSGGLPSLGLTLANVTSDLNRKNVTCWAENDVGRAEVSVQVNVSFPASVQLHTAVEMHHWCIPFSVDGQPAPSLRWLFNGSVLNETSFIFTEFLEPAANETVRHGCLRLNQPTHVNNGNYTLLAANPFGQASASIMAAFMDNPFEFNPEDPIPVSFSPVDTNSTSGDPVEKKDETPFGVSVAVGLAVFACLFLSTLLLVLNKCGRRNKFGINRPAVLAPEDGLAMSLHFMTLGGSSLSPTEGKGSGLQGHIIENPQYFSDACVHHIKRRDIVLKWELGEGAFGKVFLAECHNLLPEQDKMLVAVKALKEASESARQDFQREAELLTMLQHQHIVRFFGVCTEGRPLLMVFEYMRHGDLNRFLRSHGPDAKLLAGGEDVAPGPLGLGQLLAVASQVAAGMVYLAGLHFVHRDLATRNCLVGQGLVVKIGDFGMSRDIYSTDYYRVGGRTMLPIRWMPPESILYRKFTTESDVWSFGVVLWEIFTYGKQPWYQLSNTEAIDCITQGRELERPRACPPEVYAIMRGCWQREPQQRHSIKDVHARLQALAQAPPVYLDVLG
# Text: as §1
# MEK2 = biological target: T7, MEK2 (Homo sapiens, UniProt P36507)
# T7 construct: purchased DiscoveRx KINOMEscan
# T7 sequence (P36507 whole entry): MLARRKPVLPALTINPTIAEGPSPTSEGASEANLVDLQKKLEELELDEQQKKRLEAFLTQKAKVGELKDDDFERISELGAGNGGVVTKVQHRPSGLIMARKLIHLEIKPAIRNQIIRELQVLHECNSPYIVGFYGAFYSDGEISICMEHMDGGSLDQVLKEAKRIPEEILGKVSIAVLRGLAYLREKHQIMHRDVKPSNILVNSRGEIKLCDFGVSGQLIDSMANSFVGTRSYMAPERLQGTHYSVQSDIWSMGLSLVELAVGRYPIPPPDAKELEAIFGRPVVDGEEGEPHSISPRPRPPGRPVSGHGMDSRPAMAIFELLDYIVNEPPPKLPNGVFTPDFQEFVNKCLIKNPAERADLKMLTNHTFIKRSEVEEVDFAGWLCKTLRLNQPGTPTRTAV
# Text: as §1
# LKB1 = biological target: T8, LKB1 (Homo sapiens, UniProt Q15831)
# T8 construct: purchased DiscoveRx KINOMEscan
# Text: as §1
# ADCK3 = biological target: T9, ADCK3 (Homo sapiens, UniProt Q8NI60)
# T9 construct: purchased DiscoveRx KINOMEscan
# Text: as §1
# MLK1 = biological target: T10, MLK1 (Homo sapiens, UniProt P80192)
# T10 construct: purchased DiscoveRx KINOMEscan
# T10 sequence (P80192 whole entry): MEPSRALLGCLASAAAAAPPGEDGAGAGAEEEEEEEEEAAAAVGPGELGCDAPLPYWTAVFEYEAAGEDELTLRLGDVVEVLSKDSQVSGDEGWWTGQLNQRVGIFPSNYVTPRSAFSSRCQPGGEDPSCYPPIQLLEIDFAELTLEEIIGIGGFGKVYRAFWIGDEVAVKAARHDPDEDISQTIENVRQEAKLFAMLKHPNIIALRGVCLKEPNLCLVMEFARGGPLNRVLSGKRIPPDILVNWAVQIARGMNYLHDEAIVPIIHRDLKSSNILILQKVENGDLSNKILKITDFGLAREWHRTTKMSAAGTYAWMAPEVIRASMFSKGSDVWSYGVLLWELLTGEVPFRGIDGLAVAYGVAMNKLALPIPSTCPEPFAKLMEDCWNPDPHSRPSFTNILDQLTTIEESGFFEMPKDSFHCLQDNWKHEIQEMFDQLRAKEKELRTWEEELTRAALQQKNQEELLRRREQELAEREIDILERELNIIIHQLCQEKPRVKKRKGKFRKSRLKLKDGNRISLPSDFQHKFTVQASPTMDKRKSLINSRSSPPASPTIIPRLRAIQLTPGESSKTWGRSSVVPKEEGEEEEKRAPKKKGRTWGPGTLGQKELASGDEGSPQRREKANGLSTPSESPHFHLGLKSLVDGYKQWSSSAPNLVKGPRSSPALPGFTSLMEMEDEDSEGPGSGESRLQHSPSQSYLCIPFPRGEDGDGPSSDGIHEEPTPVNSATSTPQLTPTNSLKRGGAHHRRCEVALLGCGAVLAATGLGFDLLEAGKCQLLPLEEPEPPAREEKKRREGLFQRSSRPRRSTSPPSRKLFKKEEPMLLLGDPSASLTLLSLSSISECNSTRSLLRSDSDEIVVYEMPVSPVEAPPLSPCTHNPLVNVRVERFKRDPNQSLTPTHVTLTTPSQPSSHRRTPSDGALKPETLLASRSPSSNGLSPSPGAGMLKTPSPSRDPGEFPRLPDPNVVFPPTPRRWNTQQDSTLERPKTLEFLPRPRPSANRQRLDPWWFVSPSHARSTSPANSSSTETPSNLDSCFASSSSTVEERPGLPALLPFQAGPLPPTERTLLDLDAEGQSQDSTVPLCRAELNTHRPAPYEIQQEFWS
# Text: as §1
# SNARK = biological target: T11, SNARK (Homo sapiens, UniProt Q9H093)
# T11 construct: purchased DiscoveRx KINOMEscan
# Text: as §1
# KIT(D816V) = biological target: T12, KIT(D816V) (Homo sapiens, UniProt P10721, D816V)
# T12 construct: purchased DiscoveRx KINOMEscan
# Text: as §1
# p38-beta = biological target: T13, p38-beta (Homo sapiens, UniProt Q15759)
# T13 construct: purchased DiscoveRx KINOMEscan
# Text: as §1
# SRPK3 = biological target: T14, SRPK3 (Homo sapiens, UniProt Q9UPE1)
# T14 construct: purchased DiscoveRx KINOMEscan
# Text: as §1
# [2] = biological target: T15, RSK2 (Kin.Dom.1-N- terminal) (Homo sapiens, UniProt P51812)
# T15 construct: RSK2 (Kin.Dom.1-N- terminal); purchased DiscoveRx KINOMEscan
# Text: as §1
# DCAMKL1 = biological target: T16, DCAMKL1 (Homo sapiens, UniProt O15075)
# T16 construct: purchased DiscoveRx KINOMEscan
# Text: as §1
# CSF1R = biological target: T17, CSF1R (Homo sapiens, UniProt P07333)
# T17 construct: purchased DiscoveRx KINOMEscan
# Text: as §1
# AXL = biological target: T18, AXL (Homo sapiens, UniProt P30530)
# T18 construct: purchased DiscoveRx KINOMEscan
# T18 sequence (P30530 26-894): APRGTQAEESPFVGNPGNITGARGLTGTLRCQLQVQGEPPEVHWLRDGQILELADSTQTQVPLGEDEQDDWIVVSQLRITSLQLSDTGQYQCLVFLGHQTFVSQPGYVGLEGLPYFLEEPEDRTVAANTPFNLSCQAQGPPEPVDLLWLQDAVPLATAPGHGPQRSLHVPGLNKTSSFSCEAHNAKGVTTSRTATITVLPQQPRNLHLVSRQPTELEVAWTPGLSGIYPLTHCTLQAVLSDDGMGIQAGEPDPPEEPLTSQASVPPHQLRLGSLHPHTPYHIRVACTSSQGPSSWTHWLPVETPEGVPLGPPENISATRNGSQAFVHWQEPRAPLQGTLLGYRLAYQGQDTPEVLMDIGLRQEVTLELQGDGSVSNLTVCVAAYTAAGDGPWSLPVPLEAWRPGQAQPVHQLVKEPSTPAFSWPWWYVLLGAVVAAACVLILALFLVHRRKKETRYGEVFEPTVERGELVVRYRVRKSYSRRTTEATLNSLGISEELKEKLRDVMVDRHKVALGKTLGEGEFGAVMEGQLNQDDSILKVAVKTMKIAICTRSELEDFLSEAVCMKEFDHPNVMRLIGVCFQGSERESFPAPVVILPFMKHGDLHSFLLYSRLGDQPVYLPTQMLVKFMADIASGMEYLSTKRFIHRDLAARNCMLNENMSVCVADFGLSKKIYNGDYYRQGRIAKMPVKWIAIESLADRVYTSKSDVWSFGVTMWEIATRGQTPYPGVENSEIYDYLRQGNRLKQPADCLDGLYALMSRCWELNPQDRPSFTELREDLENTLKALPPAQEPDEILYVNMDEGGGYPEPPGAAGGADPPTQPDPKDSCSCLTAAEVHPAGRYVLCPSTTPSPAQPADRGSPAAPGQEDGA
# Text: as §1
# PCTK1 = biological target: T19, PCTK1 (Homo sapiens, UniProt Q00536)
# T19 construct: purchased DiscoveRx KINOMEscan
# T19 sequence (Q00536 whole entry): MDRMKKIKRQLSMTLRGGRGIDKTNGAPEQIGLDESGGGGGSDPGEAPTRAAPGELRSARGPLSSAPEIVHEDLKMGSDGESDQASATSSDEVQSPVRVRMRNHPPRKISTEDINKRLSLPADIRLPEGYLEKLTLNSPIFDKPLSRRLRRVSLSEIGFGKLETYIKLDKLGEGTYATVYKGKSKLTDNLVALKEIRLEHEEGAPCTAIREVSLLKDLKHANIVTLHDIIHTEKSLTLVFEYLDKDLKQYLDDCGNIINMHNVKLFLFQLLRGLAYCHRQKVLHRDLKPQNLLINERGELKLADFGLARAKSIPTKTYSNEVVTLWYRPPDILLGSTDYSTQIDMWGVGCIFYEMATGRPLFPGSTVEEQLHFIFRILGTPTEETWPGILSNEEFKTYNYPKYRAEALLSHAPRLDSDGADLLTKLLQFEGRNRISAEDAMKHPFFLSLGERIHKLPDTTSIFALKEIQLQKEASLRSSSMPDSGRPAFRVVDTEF
# Text: as §1
# RIOK2 = biological target: T20, RIOK2 (Homo sapiens, UniProt Q9BVS4)
# T20 construct: purchased DiscoveRx KINOMEscan
# Text: as §1
# AKT2 = biological target: T21, AKT2 (Homo sapiens, UniProt P31751)
# T21 construct: purchased DiscoveRx KINOMEscan
# Text: as §1
# PRKCE = biological target: T22, PRKCE (Homo sapiens, UniProt Q02156)
# T22 construct: purchased DiscoveRx KINOMEscan
# Text: as §1
# BRAF (V600E) = biological target: T23, BRAF (V600E) (Homo sapiens, UniProt P15056, V600E)
# T23 construct: purchased DiscoveRx KINOMEscan
# Text: as §1
# JNK3 = biological target: T24, JNK3 (Homo sapiens, UniProt P53779)
# T24 construct: purchased DiscoveRx KINOMEscan
# Text: as §1
# CSNK1D = biological target: T25, CSNK1D (Homo sapiens, UniProt P48730)
# T25 construct: purchased DiscoveRx KINOMEscan
# Text: as §1
# CDK7 = biological target: T26, CDK7 (Homo sapiens, UniProt P50613)
# T26 construct: purchased DiscoveRx KINOMEscan
# Text: as §1
# KIT = biological target: T27, KIT (Homo sapiens, UniProt P10721)
# T27 construct: purchased DiscoveRx KINOMEscan
# Text: as §1
# PIM1 = biological target: T28, PIM1 (Homo sapiens, UniProt P11309)
# T28 construct: purchased DiscoveRx KINOMEscan
# Text: as §1
# CDK11 = biological target: T29, CDK11 (Homo sapiens, UniProt Q9BWU1)
# T29 construct: purchased DiscoveRx KINOMEscan
# Text: as §1
# CHEK1 = biological target: T30, CHEK1 (Homo sapiens, UniProt O14757)
# T30 construct: purchased DiscoveRx KINOMEscan
# Text: as §1
# EGFR = biological target: T31, EGFR (Homo sapiens, UniProt P00533)
# T31 construct: purchased DiscoveRx KINOMEscan
# Text: as §1
# PIK3C2B = biological target: T32, PIK3C2B (Homo sapiens, UniProt O00750)
# T32 construct: purchased DiscoveRx KINOMEscan
# Text: as §1
# IKK-alpha = biological target: T33, IKK-alpha (Homo sapiens, UniProt O15111)
# T33 construct: purchased DiscoveRx KINOMEscan
# Text: as §1
# EGFR (L858R) = biological target: T34, EGFR (L858R) (Homo sapiens, UniProt P00533, L858R)
# T34 construct: purchased DiscoveRx KINOMEscan
# Text: as §1
# TIE2 = biological target: T35, TIE2 (Homo sapiens, UniProt Q02763)
# T35 construct: purchased DiscoveRx KINOMEscan
# Text: as §1
# ACVR1B = biological target: T36, ACVR1B (Homo sapiens, UniProt P36896)
# T36 construct: purchased DiscoveRx KINOMEscan
# Text: as §1
# DYRK1B = biological target: T37, DYRK1B (Homo sapiens, UniProt Q9Y463)
# T37 construct: purchased DiscoveRx KINOMEscan
# Text: as §1
# FAK = biological target: T38, FAK (Homo sapiens, UniProt Q05397)
# T38 construct: purchased DiscoveRx KINOMEscan
# Text: as §1
# ABL1-phosphorylated = biological target: T39, ABL1-phosphorylated (Homo sapiens, UniProt P00519)
# T39 construct: purchased DiscoveRx KINOMEscan
# Text: as §1
# BRAF = biological target: T40, BRAF (Homo sapiens, UniProt P15056)
# T40 construct: purchased DiscoveRx KINOMEscan
# Text: as §1
# SRC = biological target: T41, SRC (Homo sapiens, UniProt P12931)
# T41 construct: purchased DiscoveRx KINOMEscan
# Text: as §1
structure (smiles),measurement,setting,value
CNC(=O)c1cccc(-c2ccc3c(N4C5CCC4COC5)nc(N4CCOC[C@@H]4C)nc3n2)c1 [MTI-31],% Control,ALK,78%
same,% Control,[1],63%
same,% Control,"KIT (V559D, T670I)",100%
same,% Control,MET,100%
same,% Control,PAK4,100%
same,% Control,TRKA,84%
same,% Control,MEK2,75%
same,% Control,LKB1,100%
same,% Control,ADCK3,97%
same,% Control,MLK1,100%
same,% Control,SNARK,89%
same,% Control,KIT(D816V),97%
same,% Control,p38-beta,100%
same,% Control,SRPK3,90%
same,% Control,[2],78%
same,% Control,DCAMKL1,76%
same,% Control,CSF1R,99%
same,% Control,AXL,97%
same,% Control,PCTK1,87%
same,% Control,RIOK2,80%
same,% Control,AKT2,94%
same,% Control,PRKCE,91%
same,% Control,BRAF (V600E),93%
same,% Control,JNK3,96%
same,% Control,CSNK1D,80%
same,% Control,CDK7,99%
same,% Control,KIT,100%
same,% Control,PIM1,100%
same,% Control,CDK11,100%
same,% Control,CHEK1,83%
same,% Control,EGFR,94%
same,% Control,PIK3C2B,100%
same,% Control,IKK-alpha,82%
same,% Control,EGFR (L858R),100%
same,% Control,TIE2,100%
same,% Control,ACVR1B,86%
same,% Control,DYRK1B,100%
same,% Control,FAK,89%
same,% Control,ABL1-phosphorylated,70%
same,% Control,BRAF,80%
same,% Control,SRC,100%
